These results are taken from ChEMBL document CHEMBL5500402, “Potent, Selective Agonists for the Cannabinoid-like Orphan G Protein-Coupled Receptor GPR18: A Promising Drug Target for Cancer and Immunity” (J Med Chem, 2024).

Each structure is given as a SMILES string. Some results are limits rather than exact numbers.

Assay [1] has as its target T1, N-arachidonyl glycine receptor (Mus musculus, UniProt Q8K1Z6).
T1 sequence (Q8K1Z6 whole entry): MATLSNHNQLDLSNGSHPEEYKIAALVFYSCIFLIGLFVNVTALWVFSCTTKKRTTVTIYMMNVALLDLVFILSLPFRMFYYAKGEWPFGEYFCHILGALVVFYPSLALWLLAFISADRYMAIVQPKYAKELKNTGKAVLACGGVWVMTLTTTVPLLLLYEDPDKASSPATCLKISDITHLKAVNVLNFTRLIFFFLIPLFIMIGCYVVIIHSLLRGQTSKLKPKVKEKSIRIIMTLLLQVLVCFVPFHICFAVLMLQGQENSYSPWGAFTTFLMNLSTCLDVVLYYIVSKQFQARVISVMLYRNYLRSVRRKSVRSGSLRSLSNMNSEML
Description: Agonist activity at mouse GPR18 expressed in CHO cells assessed as activation by measuring beta-arrestin2 recruitment incubated for 90 mins by luminescence based assay

Assay [2] concerns the target T2, N-arachidonyl glycine receptor (Homo sapiens, UniProt Q14330).
T2 sequence (Q14330 whole entry): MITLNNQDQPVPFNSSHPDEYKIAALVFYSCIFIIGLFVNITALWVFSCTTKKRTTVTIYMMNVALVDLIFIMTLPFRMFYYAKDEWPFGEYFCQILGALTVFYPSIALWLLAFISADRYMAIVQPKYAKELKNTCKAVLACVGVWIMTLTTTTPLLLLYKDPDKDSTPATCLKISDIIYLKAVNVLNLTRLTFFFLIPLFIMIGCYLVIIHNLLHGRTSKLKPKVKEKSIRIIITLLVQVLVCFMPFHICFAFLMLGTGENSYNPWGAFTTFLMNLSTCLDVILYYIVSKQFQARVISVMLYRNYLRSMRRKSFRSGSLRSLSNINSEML
Nature of the assay: Agonist activity at human GPR18 expressed in CHO cells assessed as activation by measuring beta-arrestin2 recruitment incubated for 90 mins by luminescence based assay. The assay is classed as functional, cell-based. A general note: Arrestin recruitment assays detect the binding of arrestin to an activated receptor.

The target in assay [3] is Cannabinoid receptor 2 (Homo sapiens, UniProt P34972). As to the kind of experiment: Displacement of [3H]-CP55940 from human CB2 receptor expressed in CHO cells assessed as inhibition constant by radioligand competition binding assay. The assay is classed as cell-based. (In general: In a radioligand displacement assay an active substance lowers the binding of a labelled ligand.)

Assay [4] concerns the target Cannabinoid receptor 1 (Homo sapiens, UniProt P21554). Nature of the assay: Displacement of [3H]-CP55940 from human CB1 receptor expressed in CHO cells assessed as inhibition constant by radioligand competition binding assay. The assay is classed as cell-based.

Chain of Cannabinoid receptor 1 (P21554 whole entry): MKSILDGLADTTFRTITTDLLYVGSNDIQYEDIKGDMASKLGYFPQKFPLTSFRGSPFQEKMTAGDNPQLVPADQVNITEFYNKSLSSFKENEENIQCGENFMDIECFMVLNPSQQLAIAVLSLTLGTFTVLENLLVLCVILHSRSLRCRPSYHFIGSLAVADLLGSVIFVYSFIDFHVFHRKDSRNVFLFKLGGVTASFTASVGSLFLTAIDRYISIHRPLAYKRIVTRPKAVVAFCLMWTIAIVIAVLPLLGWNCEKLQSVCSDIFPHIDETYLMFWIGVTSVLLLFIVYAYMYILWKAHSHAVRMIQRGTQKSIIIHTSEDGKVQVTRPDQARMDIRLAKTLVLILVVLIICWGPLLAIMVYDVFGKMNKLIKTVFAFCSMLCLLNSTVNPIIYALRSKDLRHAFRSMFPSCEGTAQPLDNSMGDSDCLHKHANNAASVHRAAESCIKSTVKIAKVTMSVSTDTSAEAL
Chain of Cannabinoid receptor 2 (P34972 whole entry): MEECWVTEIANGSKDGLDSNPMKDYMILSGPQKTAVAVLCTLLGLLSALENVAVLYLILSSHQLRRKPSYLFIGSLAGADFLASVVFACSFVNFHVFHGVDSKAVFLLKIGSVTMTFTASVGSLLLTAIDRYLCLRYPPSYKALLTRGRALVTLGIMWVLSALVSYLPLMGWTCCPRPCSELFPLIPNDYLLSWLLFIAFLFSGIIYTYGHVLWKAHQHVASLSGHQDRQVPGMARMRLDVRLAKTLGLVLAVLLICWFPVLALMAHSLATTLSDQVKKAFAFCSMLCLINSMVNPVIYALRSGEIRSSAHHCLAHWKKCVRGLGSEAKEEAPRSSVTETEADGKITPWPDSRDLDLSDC

The term EC50 denotes the concentration giving half of the maximal effect. Consider `Cn1c(=O)c2c(nc3n2CCCN3CCc2c[nH]c3ccccc23)n(C)c1=O`, for which the EC50 in assay [1] was determined as 1780 nM. The same measure, in the same setting: the figure for `Cn1c(=O)c2c(nc3n2CCCCN3CCc2c[nH]c3ccccc23)n(C)c1=O` is 582 nM. On to `C=C(C)[C@@H]1CCC(C)=C[C@H]1c1c(O)cc(O)cc1CCCCC`, for which the EC50 in assay [2] and in assay [1] was > 10000 nM in each case. With `CCC#CCn1c(NCCc2c[nH]c3ccccc23)nc2c1c(=O)n(C)c(=O)n2C`, the figures for the EC50 in assay [2] and in assay [1] were 254 nM and 371 nM, respectively. For `Cn1c(=O)c2c(nc(NCCc3c[nH]c4ccccc34)n2CCF)n(C)c1=O`, in that order: 1390 nM and 2640 nM. On to `Cn1c(=O)c2c(nc(NCCc3c[nH]c4ccccc34)n2Cc2ccccc2)n(C)c1=O`, for which the results for the EC50 in assay [2] and in assay [1] were 149 nM and 194 nM, respectively.

For the compound `C=CCn1c(NCCc2c[nH]c3ccccc23)nc2c1c(=O)n(C)c(=O)n2C`, the half-maximal effective concentration (EC50) in assay [2] came to 169 nM; in assay [1] it was 379 nM.

In general, Ki refers to a dissociation constant, usually derived from enzyme kinetics or from competition with a known ligand. Turning to `Cn1c(=O)c2c(nc(NCCc3c[nH]c4ccccc34)n2Cc2cccc(Cl)c2)n(C)c1=O`, the EC50 worked out at 71 nM in assay [2] and 220 nM in assay [1]. Moreover, the Ki in assay [3] worked out at 896 nM.

In the case of `Cn1c(=O)c2c(nc(NCCc3c[nH]c4ccccc34)n2Cc2cccc(Br)c2)n(C)c1=O`, the EC50 in assay [2] was found to be 10 nM; in assay [1] it was 180 nM. Moreover, the Ki in assay [3] stood at 344 nM. Turning to `CCCn1c(NCCc2c[nH]c3ccccc23)nc2c1c(=O)n(C)c(=O)n2C`, the EC50 came to 196 nM in assay [2] and 299 nM in assay [1]. For `CCn1c(NCCc2c[nH]c3ccccc23)nc2c1c(=O)n(C)c(=O)n2C`, the figures for the EC50 in assay [2] and in assay [1] were 190 nM and 379 nM, respectively. For `Cn1c(=O)c2c(nc(NCCc3c[nH]c4ccccc34)n2Cc2ccc(C(N)=O)cc2)n(C)c1=O`, in that order: 3600 nM and 4000 nM. The matching figures for `Cn1c(=O)c2c(nc(NCCc3c[nH]c4ccccc34)n2Cc2ccc(Cl)c(Cl)c2)n(C)c1=O`: 74 nM and 90 nM. The matching figures for `COc1cccc(Cn2c(NCCc3c[nH]c4ccccc34)nc3c2c(=O)n(C)c(=O)n3C)c1`: 166 nM and 245 nM. On to `C#CCn1c(NCCc2c[nH]c3ccccc23)nc2c1c(=O)n(C)c(=O)n2C`, for which the EC50 in assay [2] came to 247 nM; in assay [1], 318 nM. In assay [1], `Cn1c(=O)c2c(nc(NCCc3c[nH]c4ccccc34)n2Cc2ccc(Cl)cc2)n(CC(F)(F)F)c1=O` showed an EC50 of 711 nM. On the same count and under the same terms, the figure for `Cn1c(=O)c2c(nc(NCCc3c[nH]c4ccccc34)n2Cc2c(Cl)cccc2Cl)n(C)c1=O` is 559 nM. Consider `Cn1c(=O)c2c(nc(NCCc3c[nH]c4ccccc34)n2Cc2ccc(S(N)(=O)=O)cc2)n(C)c1=O`, for which the EC50 worked out at 6640 nM in assay [2] and 10900 nM in assay [1]. The compound `Cn1c(=O)c2c(nc(NCCc3c[nH]c4ccccc34)n2Cc2ccc(Cl)c(F)c2)n(C)c1=O` showed an EC50 in assay [1] of 121 nM. With `CNS(=O)(=O)c1ccc(Cn2c(NCCc3c[nH]c4ccccc34)nc3c2c(=O)n(C)c(=O)n3C)cc1`, the EC50 amounted to 3670 nM in assay [2] and 3630 nM in assay [1]. For `Cn1c(=O)c2c(nc(NCCc3c[nH]c4ccccc34)n2Cc2ccc(Cl)cc2Cl)n(C)c1=O`, in that order: 64 nM and 244 nM. For the compound `Cn1c(=O)c2c(nc(NCCc3c[nH]c4ccccc34)n2Cc2cccc(F)c2)n(C)c1=O`, a half-maximal response in assay [1] (EC50) required 301 nM. `CC(C)c1ccc(Cn2c(NCCc3c[nH]c4ccccc34)nc3c2c(=O)n(C)c(=O)n3C)cc1`: the Ki in assay [3] was determined as 150 nM; in assay [4] (read-out: Ki) it was 6280 nM. The compound also registered an EC50 in assay [1] of 150 nM.

For the compound `Cn1c(=O)c2c(nc(NCCc3c[nH]c4ccccc34)n2Cc2ccc(C(F)(F)F)cc2)n(C)c1=O`, the EC50 stood at 136 nM in assay [2] and 216 nM in assay [1].

As to `Cn1c(=O)c2c(nc(NCCc3c[nH]c4ccccc34)n2Cc2ccccc2Br)n(C)c1=O`, the EC50 in assay [2] came out at 189 nM; in assay [1] it was 156 nM. For the same compound, the Ki in assay [3] came out at 1690 nM. In turn, `Cn1c(=O)c2c(nc(NCCc3c[nH]c4ccccc34)n2Cc2ccc(Cl)cc2)n(CCO)c1=O` displayed an EC50 in assay [1] of 1200 nM.

In assay [1], `Cn1c(=O)c2c(nc(NCCc3c[nH]c4ccccc34)n2Cc2ccc(Br)cc2)n(C)c1=O` returned an EC50 of 58 nM. Turning to `Cn1c(=O)c2c(nc(NCCc3c[nH]c4ccccc34)n2Cc2ccc(F)c(Cl)c2)n(C)c1=O`, the EC50 in assay [2] came to 193 nM; in assay [1], 251 nM. In the case of `Cn1c(=O)c2c(nc(NCCc3c[nH]c4ccccc34)n2CCCc2ccccc2)n(C)c1=O`, in assay [1], the EC50 worked out at 230 nM. Consider `Cn1c(=O)c2c(nc(NCCc3c[nH]c4ccccc34)n2Cc2ccc(Cl)cc2)n(CCF)c1=O`, for which the EC50 in assay [2] was 351 nM; in assay [1] it was 398 nM. `Cn1c(=O)c2c(nc(NCCc3c[nH]c4ccccc34)n2CCC2CCCCC2)n(C)c1=O` came in with an EC50 in assay [1] of 127 nM.

As for `Cn1c(=O)[nH]c2nc(NCCc3c[nH]c4ccccc34)n(Cc3ccc(Cl)cc3)c2c1=O`, the results for the EC50 in assay [2] and in assay [1] were 206 nM and 290 nM, respectively. For `Cn1c(=O)c2c(nc(NCCc3c[nH]c4ccccc34)n2Cc2ccc(Cl)cc2)n(CC#N)c1=O`, in that order: 1220 nM and 981 nM. In assay [1], `Cn1c(=O)c2c(nc(NCCc3c[nH]c4ccccc34)n2Cc2ccc([N+](=O)[O-])cc2)n(C)c1=O` gave an EC50 of 280 nM.

The compound `CCCNS(=O)(=O)c1ccc(Cn2c(NCCc3c[nH]c4ccccc34)nc3c2c(=O)n(C)c(=O)n3C)cc1` showed an EC50 in assay [1] of 1300 nM. With `Cn1c(=O)c2c(nc(NCCc3c[nH]c4ccccc34)n2Cc2ccccc2Cl)n(C)c1=O`, the EC50 stood at 60 nM in assay [2] and 157 nM in assay [1]. For the same compound, the Ki in assay [3] and in assay [4] (read-out: Ki) was > 10000 nM throughout. As for `COC(=O)c1ccc(Cn2c(NCCc3c[nH]c4ccccc34)nc3c2c(=O)n(C)c(=O)n3C)cc1`, the EC50 in assay [2] was 469 nM; in assay [1], 488 nM. On to `COc1ccc(Cn2c(NCCc3c[nH]c4ccccc34)nc3c2c(=O)n(C)c(=O)n3C)cc1`, for which the EC50 in assay [2] worked out at 138 nM; in assay [1], 171 nM. For the same compound, in assay [4] (cho), the Ki result was “Not Active”. On to `Cc1ccc(Cn2c(NCCc3c[nH]c4ccccc34)nc3c2c(=O)n(C)c(=O)n3C)cc1`, for which the EC50 in assay [2] came out at 24 nM; in assay [1], 46 nM. Further, the Ki in assay [3] is 827 nM; in assay [4] (read-out: Ki) it was 3480 nM. Consider `CC(=O)Nc1ccc(Cn2c(NCCc3c[nH]c4ccccc34)nc3c2c(=O)n(C)c(=O)n3C)cc1`, for which the results for the EC50 in assay [2] and in assay [1] were 218 nM and 281 nM, respectively.

Consider `Cn1c(=O)c2c(nc(NCCc3c[nH]c4ccccc34)n2Cc2ccc(F)c(F)c2)n(C)c1=O`, for which the 50% effective concentration (EC50) was determined as 142 nM in assay [2] and 161 nM in assay [1]. For `CCn1c(=O)n(C)c(=O)c2c1nc(NCCc1c[nH]c3ccccc13)n2Cc1ccc(Cl)cc1`, in that order: 95 nM and 297 nM. For `Cn1c(=O)c2c(nc(NCCc3c[nH]c4ccccc34)n2C)n(C)c1=O`, in that order: 902 nM and 2970 nM. Consider `Cn1c(=O)c2c(nc(NCCc3c[nH]c4ccccc34)n2Cc2ccccc2F)n(C)c1=O`, for which the EC50 turned out to be 137 nM in assay [2] and 128 nM in assay [1]. Take `Cn1c(=O)c2c(nc(NCCc3c[nH]c4ccccc34)n2Cc2ccc(F)cc2)n(C)c1=O`: the EC50 was 54 nM in assay [2] and 124 nM in assay [1].

With `Cn1c(=O)c2c(nc(NCCc3c[nH]c4ccccc34)n2CCOc2ccc(Cl)cc2)n(C)c1=O`, the EC50 in assay [1] amounted to 444 nM.

With `Cn1c(=O)c2c(nc(NCCc3c[nH]c4ccccc34)n2Cc2ccc(Cl)cc2)n(Cc2ccccc2)c1=O`, the EC50 is > 10000 nM in assay [2] and 393 nM in assay [1]. The matching figures for `CCCCn1c(NCCc2c[nH]c3ccccc23)nc2c1c(=O)n(C)c(=O)n2C`: 151 nM and 207 nM. On to `CCCNC(=O)c1ccc(Cn2c(NCCc3c[nH]c4ccccc34)nc3c2c(=O)n(C)c(=O)n3C)cc1`, for which the results for the EC50 in assay [2] and in assay [1] were 1410 nM and 1270 nM, respectively. As for `Cn1c(=O)c2c(nc(NCCc3c[nH]c4ccccc34)n2CCOc2ccccc2)n(C)c1=O`, the EC50 in assay [1] was 334 nM.

With `C=CCCn1c(NCCc2c[nH]c3ccccc23)nc2c1c(=O)n(C)c(=O)n2C`, the EC50 in assay [1] amounted to 447 nM. As to `Cn1c(=O)c2c(nc(NCCc3c[nH]c4ccccc34)n2CCc2ccccc2)n(C)c1=O`, the EC50 stood at 442 nM in assay [2] and 288 nM in assay [1].

For the compound `CCCn1c(=O)n(C)c(=O)c2c1nc(NCCc1c[nH]c3ccccc13)n2Cc1ccc(Cl)cc1`, the EC50 in assay [2] and in assay [1] was > 10000 nM in each case.

Consider `Cn1c(=O)c2c(nc(NCCc3c[nH]c4ccccc34)n2Cc2ccc(N)cc2)n(C)c1=O`, for which, in assay [1], a half-maximal effect (EC50) was put at 241 nM. For the compound `CCCCC/C=C\C/C=C\C/C=C\C/C=C\CCCC(=O)NCC(=O)O` [ARACHIDONOYL GLYCINE], the EC50 in assay [2] and in assay [1] was > 10000 nM in each case.
